Experimental data reported in US10448639B2, “Fungicidal pyrazoles” (FMC CORPORATION, priority 2009, dated 2019).
Where two headings read alike, the source gives them in different places.

What was measured:
Septoria nodorum = assay: Test F: Septoria glume blotch, preventive spray on wheat seedlings, visual disease rating
Plasmopara viticola = assay: Test A: grape downy mildew, curative spray on inoculated grape seedlings, visual disease rating; format: in vivo; conditions: 100 = 100% disease control; for Test A rating (% disease control): 0 = no control relative to controls
Source text: Upon removal, visual disease ratings were made. […] A dash (-) indicates no test results.

Rhizoctonia solani = assay: Test E: turf brown patch, preventive spray on creeping bent grass (Agrostis sp.) seedlings, disease rating; format: in vivo; conditions: 100 = 100% disease control
Source text: A dash (-) indicates no test results.

Phytophthora infestans = format: in vivo; conditions: tomato late blight, 100 = 100% disease control
Botrytis cinerea = assay: Test B: tomato Botrytis, preventive spray on tomato seedlings, visual disease rating
Septoria tritici = assay: Test G: wheat leaf blotch, preventive spray on wheat seedlings, visual disease rating; conditions: for Test G rating (% disease control): preventive spray, 0 = no control
Alternaria solani = assay: Test C: tomato early blight, preventive spray on tomato seedlings, visual disease rating
[1] = test system: Puccinia recondita f. sp. tritici; assay: Test I: wheat leaf rust, preventive spray on wheat seedlings, visual disease rating
[2] = test system: Erysiphe graminis f sp. tritici; assay: Test J: wheat powdery mildew, preventive spray on wheat seedlings, visual disease rating
[3] = preventive spray, 0 = no control
[4] = Septoria glume blotch on wheat, preventive spray, 100 = 100% disease control, 0 = no control
[5] = tomato Botrytis, preventive spray, 100 = 100% disease control, 0 = no control
[6] = wheat leaf blotch, 100 = 100% disease control
[7] = tomato early blight, preventive spray, 100 = 100% disease control, 0 = no control
[8] = wheat leaf rust, preventive spray, 100 = 100% disease control, 0 = no control
[9] = wheat powdery mildew, preventive spray, 100 = 100% disease control, 0 = no control
[10] = Septoria glume blotch, 100 = 100% disease control, 0 = no control relative to controls
[11] = 0 = no control relative to controls
[12] = tomato Botrytis, 100 = 100% disease control, 0 = no control relative to controls
[13] = tomato early blight, 100 = 100% disease control, 0 = no control relative to controls
[14] = wheat leaf rust, preventive, 100 = 100% disease control, 0 = no control relative to controls
[15] = wheat powdery mildew, 100 = 100% disease control, 0 = no control relative to controls
[16] = 0 = no disease control relative to controls

| Structure (SMILES) | Test A rating (% disease control) (Plasmopara viticola; curative spray) [%] | Test E rating (% disease control) (Rhizoctonia solani; [3]) [%] | Test D rating (% disease control) (Phytophthora infestans; [3]) [%] | Test F rating (% disease control) (Septoria nodorum; [4]) [%] | Test B rating (% disease control) (Botrytis cinerea; [5]) [%] | Test G rating (% disease control) (Septoria tritici; [6]) [%] | Test C rating (% disease control) (Alternaria solani; [7]) [%] | Test I rating (% disease control) [1, 8] [%] | Test J rating (% disease control) [2, 9] [%] | also measured |
| --- | --- | --- | --- | --- | --- | --- | --- | --- | --- | --- |
| Cc1nn(C)c(Nc2cccc(Cl)c2)c1-c1ccc(F)cc1F [Compound 1, N-(3-Chlorophenyl)-4-(2,4-difluorophenyl)-1,3-dimethyl-1H-pyrazol-5-amine] | 0 | 47 | 0 | – | – | – | – | – | – | pest or weed control at 200 µg/mL (Septoria nodorum; Parastagonospora nodorum, in Triticum aestivum, 192 h, read-out: Test F rating (% disease control)): 0%; pest or weed control at 200 µg/mL (Botrytis cinerea; Botrytis cinerea, in Solanum lycopersicum, 120 h, read-out: Test B rating (% disease control)): 99%; pest or weed control at 200 µg/mL (Septoria tritici; Zymoseptoria tritici, in Triticum aestivum, 504 h, read-out: Test G rating (% disease control)): 99%; pest or weed control at 200 µg/mL (Alternaria solani; Alternaria solani, in Solanum lycopersicum, 168 h, read-out: Test C rating (% disease control)): 0%; pest or weed control at 200 µg/mL ([1]; 192 h, read-out: Test I rating (% disease control)): 0%; pest or weed control at 200 µg/mL ([2]; Blumeria graminis, in Triticum aestivum, 192 h, read-out: Test J rating (% disease control)): 98% |
| COc1cc(Nc2c(-c3ccc(F)cc3F)c(C)nn2C)cc(OC)c1 [compound 2] | 8 | 0 | 0 | 0 | 1 | 0 | 0 | 0 | 0 | – |
| Cc1nn(C)c(N(C)c2cccc(Cl)c2)c1-c1ccc(F)cc1F [compound 3] | 6 | 0 | 9 | 0 | 0 | 13 | 25 | 0 | 99 | – |
| Cc1nn(C)c(Nc2ccc(F)cc2F)c1-c1ccc(Cl)cc1 [compound 4] | 29 | 0 | 0 | 0 | 87 | 98 | 46 | 53 | 97 | – |
| Cc1nn(C)c(Nc2cc(F)cc(F)c2)c1-c1ccc(Cl)cc1 [compound 5] | 36 | 0 | 0 | 0 | 0 | 0 | 25 | 0 | 0 | – |
| Cc1nn(C)c(N(C)c2cc(F)cc(F)c2)c1-c1ccc(Cl)cc1 [compound 6] | 65 | 0 | 0 | 0 | 10 | 0 | 23 | 0 | 93 | – |
| Cc1nn(C)c(Nc2ccc(F)c(Cl)c2)c1-c1ccc(F)cc1Cl [compound 7] | 29 | 63 | 0 | 0 | 99 | 100 | 0 | 74 | 92 | – |
| Cc1nn(C)c(Nc2cccc(F)c2)c1-c1ccc(F)cc1Cl [compound 8] | 55 | 99 | 0 | 0 | 99 | 100 | 54 | 97 | 99 | – |
| Cc1nn(C)c(Nc2ccc(F)cc2F)c1-c1ccc(F)cc1Cl [compound 13] | – | 98 | 0 | 64 | 99 | 100 | 100 | 100 | 99 | – |
| COc1cc(Nc2c(-c3c(F)cccc3F)c(C)nn2C)cc(OC)c1 [compound 37] | 0 | 0 | 0 | 0 | 0 | 3 | 0 | 0 | 0 | – |
| COc1ccc(Nc2c(-c3ccc(F)cc3Cl)c(C)nn2C)cc1 [compound 288] | – | – | – | – | – | – | – | – | – | Test F rating (% disease control) (Septoria nodorum; [10]): 0%; Test A rating (% disease control) (Plasmopara viticola): 9%; Test E rating (% disease control) (Rhizoctonia solani; [11]): 92%; Test D rating (% disease control) (Phytophthora infestans; [11]): 0%; Test B rating (% disease control) (Botrytis cinerea; [12]): 99%; Test C rating (% disease control) (Alternaria solani; [13]): 52%; Test I rating (% disease control) [1, 14]: 74%; Test J rating (% disease control) [2, 15]: 92% |
| Cc1nn(C)c(N(C)c2c(F)cc(F)cc2F)c1-c1ccc(F)cc1Cl [compound 293] | – | – | – | – | – | – | – | – | – | Test F rating (% disease control) (Septoria nodorum; [10]): 0%; Test A rating (% disease control) (Plasmopara viticola): 0%; Test E rating (% disease control) (Rhizoctonia solani; [11]): 99%; Test D rating (% disease control) (Phytophthora infestans; [11]): 0%; Test B rating (% disease control) (Botrytis cinerea; [12]): 97%; Test C rating (% disease control) (Alternaria solani; [13]): 47%; Test I rating (% disease control) [1, 14]: 94%; Test J rating (% disease control) [2, 15]: 99% |
| CCN(c1c(F)cc(F)cc1F)c1c(-c2ccc(F)cc2Cl)c(C)nn1C [compound 294] | – | – | – | – | – | – | – | – | – | Test F rating (% disease control) (Septoria nodorum; [10]): 0%; Test A rating (% disease control) (Plasmopara viticola): 0%; Test E rating (% disease control) (Rhizoctonia solani; [11]): 80%; Test D rating (% disease control) (Phytophthora infestans; [11]): 0%; Test B rating (% disease control) (Botrytis cinerea; [12]): 98%; Test C rating (% disease control) (Alternaria solani; [13]): 0%; Test I rating (% disease control) [1, 14]: 0%; Test J rating (% disease control) [2, 15]: 84% |
| Cc1nn(C)c(N(CC#N)c2c(F)cc(F)cc2F)c1-c1ccc(F)cc1Cl [compound 326] | – | – | – | – | – | – | – | – | – | Test F disease control rating (Septoria nodorum; Septoria glume blotch on wheat, 100 = 100% disease control, 0 = no disease control relative to controls): 73%; Test A disease control rating (Plasmopara viticola; [16]): 8%; Test E disease control rating (Rhizoctonia solani; [16]): 99%; Test D disease control rating (Phytophthora infestans; [16]): 0%; Test B disease control rating (Botrytis cinerea; tomato Botrytis, 100 = 100% disease control, 0 = no disease control relative to controls): 99%; Test G disease control rating (Septoria tritici; wheat leaf blotch, sprayed the day before inoculation, 100 = 100% disease control, 0 = no disease control relative to controls): 100%; Test C disease control rating (Alternaria solani; tomato early blight, 100 = 100% disease control, 0 = no disease control relative to controls): 99%; Test I disease control rating ([1]; wheat leaf rust, sprayed the day before inoculation, 100 = 100% disease control, 0 = no disease control relative to controls): 99%; Test J disease control rating ([2]; wheat powdery mildew, sprayed the day before inoculation, 100 = 100% disease control, 0 = no disease control relative to controls): 94% |
